From the NIST ThermoML archive (doi:10.1016/j.fluid.2008.07.004)
± gives the expanded uncertainty stated by the source.

Details: Liquid

vapor or sublimation pressure (330.05 K) [kPa]	vapor or sublimation pressure (352.65 K) [kPa]	Structure (SMILES)
101.3 ± 3.6	–	COC(C)=O [methyl ethanoate]
–	101.3 ± 4	CCC(=O)OC [methyl propanoate]
